This note sets out measurements from patent publication US20090069565A1, “NEW INDOLE DERIVATIVES AS FACTOR XA INHIBITORS” (priority 2001, published 2009).

Chain of human factor Xa (P00742 235-488 limits assumed): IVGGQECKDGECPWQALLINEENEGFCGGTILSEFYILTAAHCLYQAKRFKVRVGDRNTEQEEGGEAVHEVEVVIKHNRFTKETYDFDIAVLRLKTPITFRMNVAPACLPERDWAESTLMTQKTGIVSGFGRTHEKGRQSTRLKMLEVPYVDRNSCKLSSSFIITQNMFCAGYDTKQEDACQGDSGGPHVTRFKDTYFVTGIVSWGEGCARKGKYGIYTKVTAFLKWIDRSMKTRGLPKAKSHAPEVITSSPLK
Chain of human factor Xa (P00742 41-179 partner limits assumed): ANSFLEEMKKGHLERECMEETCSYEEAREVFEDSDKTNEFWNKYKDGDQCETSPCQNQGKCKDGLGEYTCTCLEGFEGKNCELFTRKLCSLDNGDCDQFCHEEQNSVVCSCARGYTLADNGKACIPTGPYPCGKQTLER

One experiment concerns the target human factor Xa (Homo sapiens, UniProt P00742). The experiment can be described thus: Factor Xa assay (chromogenic, substrate S-2765).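 Note: purified enzyme preincubated with inhibitor for 10 min before substrate addition, final reaction volume 100 µl.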 It counts as biochemical. Particulars: inhibition constant for factor Xa; purified enzyme 0.5 nM, substrate S-2765 140 μM, 25° C., pH 7.8; Ki=IC50/{1+(substrate concentration/Km)}; read-out: Ki(FXa).
Consider `CC(C)N1CCC(NC(=O)c2cc3ccccc3n2CC(=O)Nc2ccc(Cl)cc2)CC1` [Example 248, 1-[(4-chloro-phenylcarbamoyl)-methyl]-1H-indole-2-carboxylic acid (1-isopropyl-piperidin-4-yl)-amide], for which the Ki is 3 nM.

Consider `CC(C)N1CCC(NC(=O)c2cc3ccccc3n2CC(=O)Nc2ccc(Cl)s2)CC1` [Example 249, 1-[(5-chloro-thiophen-2-ylcarbamoyl)-methyl]-1H-indole-2-carboxylic acid (1-isopropyl-piperidin-4-yl)-amide], for which the Ki turned out to be 15 nM.

Staying with this experiment, now noted: read-out: Ki(FXa).
Take `CCOC(=O)CN(C(=O)c1cc2cc(Cl)cc(Cl)c2n1Cc1cc(-c2ccc(Cl)s2)on1)C1CCN(C(C)C)CC1` [Example 227, [{5,7-Dichloro-1-[5-(5-chloro-thiophen-2-yl)-isoxazol-3-ylmethyl]-1H-indole-2-carbonyl}-(1-isopropyl-piperidin-4-yl)-amino]-acetic acid ethyl ester]: the Ki came to 88 nM.

For the compound `CCOC(=O)CN(C(=O)c1cc2c(Cl)cccc2n1Cc1cc(-c2ccc(Cl)s2)on1)C1CCN(C(C)C)CC1` [Example 228, [{4-Chloro-1-[5-(5-chloro-thiophen-2-yl)-isoxazol-3-ylmethyl]-1H-indole-2-carbonyl}-(1-isopropyl-piperidin-4-yl)-amino]-acetic acid ethyl ester], the Ki came out at 51 nM.

Regarding `CC(C)N1CCC(N(CC(=O)O)C(=O)c2cc3c(C(F)(F)F)cccc3n2Cc2cc(-c3ccc(Cl)s3)on2)CC1` [Example 229, [{1-[5-(5-Chloro-thiophen-2-yl)-isoxazol-3-ylmethyl]-4-trifluoromethyl-1H-indole-2-carbonyl}-(1-isopropyl-piperidin-4-yl)-amino]-acetic acid], the Ki is 172 nM.

As to `Cc1ccc(C)c2c1cc(C(=O)N(CC(=O)O)C1CCN(C(C)C)CC1)n2Cc1cc(-c2ccc(Cl)s2)on1` [Example 230, [{1-[5-(5-Chloro-thiophen-2-yl)-isoxazol-3-ylmethyl]-4,7-dimethyl-1H-indole-2-carbonyl}-(1-isopropyl-piperidin-4-yl)-amino]-acetic acid], the Ki was 12 nM.

For the compound `COc1ccc(OC)c2c1cc(C(=O)N(CC(=O)O)C1CCN(C(C)C)CC1)n2Cc1cc(-c2ccc(Cl)s2)on1` [Example 231, [{1-[5-(5-Chloro-thiophen-2-yl)-isoxazol-3-ylmethyl]-4,7-dimethoxy-1H-indole-2-carbonyl}-(1-isopropyl-piperidin-4-yl)-amino]-acetic acid], the Ki came to 20 nM.

With `CC(C)N1CCC(N(CC(=O)O)C(=O)c2cc3c(Cl)ccc(Cl)c3n2Cc2cc(-c3ccc(Cl)s3)on2)CC1` [Example 232, [{4,7-Dichloro-1-[5-(5-chloro-thiophen-2-yl)-isoxazol-3-ylmethyl]-1H-indole-2-carbonyl}-(1-isopropyl-piperidin-4-yl)-amino]-acetic acid], the Ki amounted to 55 nM.

Turning to `CC(C)N1CCC(N(CC(=O)O)C(=O)c2cc3cc(Cl)cc(Cl)c3n2Cc2cc(-c3ccc(Cl)s3)on2)CC1` [Example 233, [{5,7-Dichloro-1-[5-(5-chloro-thiophen-2-yl)-isoxazol-3-ylmethyl]-1H-indole-2-carbonyl}-(1-isopropyl-piperidin-4-yl)-amino]-acetic acid], the Ki is 74 nM.

With `CC(C)N1CCC(N(CC(=O)O)C(=O)c2cc3c(Cl)cccc3n2Cc2cc(-c3ccc(Cl)s3)on2)CC1` [Example 234, [{4-Chloro-1-[5-(5-chloro-thiophen-2-yl)-isoxazol-3-ylmethyl]-1H-indole-2-carbonyl}-(1-isopropyl-piperidin-4-yl)-amino]-acetic acid], the Ki turned out to be 56 nM.

With `CC(C)OC(=O)c1ccc2c(c1)cc(C(=O)NC1CCN(C(C)C)CC1)n2Cc1cc(-c2ccc(Cl)s2)on1` [Example 235, 1-[5-(5-Chloro-thiophen-2-yl)-isoxazol-3-ylmethyl]-2-(1-isopropyl-piperidin-4-ylcarbamoyl)-1H-indole-5-carboxylic acid isopropyl ester], the Ki is 42 nM.

Consider `CC(C)N1CCC(NC(=O)c2cc3cc(C(=O)O)ccc3n2Cc2cc(-c3ccc(Cl)s3)on2)CC1` [Example 236, 1-[5-(5-Chloro-thiophen-2-yl)-isoxazol-3-ylmethyl]-2-(1-isopropyl-piperidin-4-ylcarbamoyl)-1H-indole-5-carboxylic acid], for which the Ki was found to be 10 nM.

In the case of `CC(C)N1CCC(NC(=O)c2cc3cc(CO)ccc3n2Cc2cc(-c3ccc(Cl)s3)on2)CC1` [Example 237, 1-[5-(5-Chloro-thiophen-2-yl)-isoxazol-3-ylmethyl]-5-hydroxymethyl-1H-indole-2-carboxylic acid (1-isopropyl-piperidin-4-yl)-amide], the Ki is 3 nM.

Turning to `CCOC(=O)c1ccc2c(c1)cc(C(=O)NC1CCN(C(C)C)CC1)n2Cc1cc(-c2ccc(Cl)s2)on1` [Example 238, 1-[5-(5-Chloro-thiophen-2-yl)-isoxazol-3-ylmethyl]-2-(1-isopropyl-piperidin-4-ylcarbamoyl)-1H-indole-5-carboxylic acid ethyl ester], the Ki worked out at 11 nM.

In the case of `COC(=O)c1ccc2c(c1)cc(C(=O)NC1CCN(C(C)C)CC1)n2Cc1cc(-c2ccc(Cl)s2)on1` [Example 239, 1-[5-(5-Chloro-thiophen-2-yl)-isoxazol-3-ylmethyl]-2-(1-isopropyl-piperidin-4-ylcarbamoyl)-1H-indole-5-carboxylic acid methyl ester], the Ki came out at 5 nM.

With `CC(C)N1CCC(NC(=O)c2cc3cc(C(=O)OCOC(=O)C(C)(C)C)ccc3n2Cc2cc(-c3ccc(Cl)s3)on2)CC1` [Example 240, 1-[5-(5-Chloro-thiophen-2-yl)-isoxazol-3-ylmethyl]-2-(1-isopropyl-piperidin-4-ylcarbamoyl)-1H-indole-5-carboxylic acid 2,2-dimethyl-propionyloxymethyl ester], the Ki was 35 nM.

Consider `CC(C)N1CCC(NC(=O)c2cc3cc(C(=O)O)ccc3n2Cc2nnc(-c3ccc(Cl)s3)s2)CC1` [Example 242, 1-[5-(5-Chloro-thiophen-2-yl)-[1,3,4]thiadiazol-2-ylmethyl]-2-(1-isopropyl-piperidin-4-ylcarbamoyl)-1H-indole-5-carboxylic acid], for which the Ki was 4 nM.

On to `CC(C)OC(=O)c1ccc2c(c1)cc(C(=O)NC1CCN(C(C)C)CC1)n2CC(=O)Nc1ccc(Cl)cc1` [Example 243, 1-[(4-Chloro-phenylcarbamoyl)-methyl]-2-(1-isopropyl-piperidin-4-ylcarbamoyl)-1H-indole-5-carboxylic acid isopropyl ester], for which the Ki stood at 10 nM.

Regarding `CC(C)N1CCC(NC(=O)c2cc3cc(C(=O)O)ccc3n2CC(=O)Nc2ccc(Cl)cc2)CC1` [Example 244, 1-[(4-Chloro-phenylcarbamoyl)-methyl]-2-(1-isopropyl-piperidin-4-ylcarbamoyl)-1H-indole-5-carboxylic acid], the Ki stood at 4 nM.

Regarding `CC(C)N1CCC(NC(=O)c2cc3c(C(=O)O)cccc3n2Cc2cc(-c3ccc(Cl)s3)on2)CC1` [Example 246, 1-[5-(5-Chloro-thiophen-2-yl)-isoxazol-3-ylmethyl]-2-(1-isopropyl-piperidin-4-ylcarbamoyl)-1H-indole-4-carboxylic acid], the Ki amounted to 4 nM.

As for `CC(C)N1CCC(NC(=O)c2cc3cc(C(N)=O)ccc3n2Cc2cc(-c3ccc(Cl)s3)on2)CC1` [Example 247, 1-[5-(5-Chloro-thiophen-2-yl)-isoxazol-3-ylmethyl]-1H-indole-2,5-dicarboxylic acid 5-amide 2-[(1-isopropyl-piperidin-4-yl)-amide]], the Ki stood at 24 nM.

Regarding `CC(C)N1CCC(NC(=O)c2cc3ccccc3n2CC(=O)Nc2ccc(Cl)cc2F)CC1` [Example 250, 1-[(4-chloro-2-fluoro-phenylcarbamoyl)-methyl]-1H-indole-2-carboxylic acid (1-isopropyl-piperidin-4-yl)-amide], the inhibition constant (Ki) was determined as 31 nM.

On to `O=C(Cn1c(C(=O)NCC2CCN(c3ccncc3)CC2)cc2ccccc21)Nc1ccc(Cl)cc1` [Example 252, 1-[(4-chloro-phenylcarbamoyl)-methyl]-1H-indole-2-carboxylic acid (3,4,5,6-tetrahydro-2H-[1,4′]bipyridinyl-4-ylmethyl)-amide], for which the Ki stood at 230 nM.

On to `O=C(Cn1c(C(=O)NC2CCN(c3ccncc3)CC2)cc2ccccc21)Nc1ccc(Cl)cc1` [Example 253, 1-[(4-chloro-phenylcarbamoyl)-methyl]-1H-indole-2-carboxylic acid (3,4,5,6-tetrahydro-2H-[1,4′]bipyridinyl-4-yl)-amide], for which the Ki worked out at 340 nM.

For the compound `O=C(Cn1c(C(=O)N2CCC(Nc3ccncc3)CC2)cc2ccccc21)Nc1ccc(Cl)cc1` [Example 254, N-(4-chloro-phenyl)-2-{2-[4-(pyridin-4-ylamino)-piperidine-1-carbonyl]-indol-1-yl}-acetamide], the Ki is 223 nM.

Consider `O=C(Cn1c(C(=O)NC2CCN(C3CC3)CC2)cc2ccccc21)Nc1ccc(Cl)cc1` [Example 255, 1-[(4-chloro-phenylcarbamoyl)-methyl]-1H-indole-2-carboxylic acid (1-cyclopropyl-piperidin-4-yl)-amide], for which the Ki was 106 nM.

As to `O=C(Cn1c(C(=O)N2CCC(N3CCCC3)CC2)cc2ccccc21)Nc1ccc(Cl)cc1` [Example 256, N-(4-chloro-phenyl)-2-[2-(4-pyrrolidin-1-yl-piperidine-1-carbonyl)-indol-1-yl]-acetamide], the Ki was 754 nM.

In the case of `CC(C)N1CCC(NC(=O)c2cc3cc([N+](=O)[O-])ccc3n2CC(=O)Nc2ccc(Cl)cc2)CC1` [Example 257, 1-[(4-chloro-phenylcarbamoyl)-methyl]-5-nitro-1H-indole-2-carboxylic acid (1-isopropyl-piperidin-4-yl)-amide], the Ki is 6 nM.

As to `CC(C)N1CCC(NC(=O)c2cc3c(Cl)c(N)ccc3n2Cc2cc(-c3ccc(Cl)s3)on2)CC1` [Example 258, 5-amino-4-chloro-1-[5-(5-chloro-thiophen-2-yl)-isoxazol-3-ylmethyl]-1H-indole-2-carboxylic acid (1-isopropyl-piperidin-4-yl)-amide], the Ki stood at 11 nM.
